Source: ChEMBL document CHEMBL4002646, “Antimalarial Properties of Simplified Kalihinol Analogues” (ACS Med Chem Lett, 2017)

Experiments:
Plasmodium falciparum [1] = test: Antimalarial activity against Plasmodium falciparum 3D7 infected in human O+ erythrocytes after 72 hrs by SYBR green fluorescence-based method; type: functional, cell-based
Plasmodium falciparum [2] = test: Antimalarial activity against chloroquine-resistant Plasmodium falciparum Dd2 infected in human O+ erythrocytes after 72 hrs by SYBR green fluorescence-based method; type: functional, cell-based
Plasmodium falciparum [3] = test: Antimalarial activity against chloroquine-resistant Plasmodium falciparum FCR-3 ATCC 30932 infected in human RBC after 72 hrs by Geimsa staining based microscopic method; type: functional; settings: FCR-3/Gambia ATCC 30932, 72 h
Plasmodium falciparum [4] = test: Antimalarial activity against chloroquine-resistant Plasmodium falciparum W2 infected in human RBC after 72 hrs; type: functional; settings: W2, 72 h
[5] = Plasmodium falciparum, 3D7, 72 h
[6] = Plasmodium falciparum, Dd2, 72 h

Row | SMILES | IC50 (Plasmodium falciparum [1]; [5]) [nM] | IC50 (Plasmodium falciparum [2]; [6]) [nM] | also measured
1 | CC(C)(Cl)[C@@H]1CC[C@](C)([C@H]2CC[C@](C)(C#N)[C@H]3CC[C@@](C)(O)[C@H](C#N)[C@@H]32)O1 | 8.4 | 4.6 | 
2 | CC(C)(O)C[C@@H]1[C@@]2(C)CCCC(C)(C)[C@@H]2CC[C@]1(C)C#N | 244 | 416 | 
3 | CC(C)[C@H]1CC[C@@](C)(C#N)[C@H]2CC[C@@](C)(C#N)[C@H](O)[C@H]12 | 1150 | 958 | 
4 | CC1=C[C@H]2[C@H](CC1)[C@@](C)(C#N)CC[C@@H]2[C@@]1(C)CC[C@](C#N)(C(C)C)O1 | 175 | 123 | 
5 | CC1(C)O[C@@](C)([C@H]2CC[C@](C)(C#N)[C@H]3CC[C@@](C)(O)[C@H](C#N)[C@@H]32)CC[C@@H]1Cl |  |  | IC50 (Plasmodium falciparum [3]): 1.2 nM
6 | CC(C)[C@H]1CC[C@@](C)(C#N)[C@H]2CC[C@@](C)(O)[C@H](C#N)[C@H]12 | 2.9 | 31 | 
7 | CC(C)(C#N)C[C@@H]1[C@@]2(C)CCCC(C)(C)[C@@H]2CC[C@]1(C)C#N | 1.9 | 1.6 | 
8 | CC(C)[C@H]1CC[C@](C)(C#N)[C@H]2CC[C@@](C)(C#N)[C@H](O)[C@H]12 | 15 |  | IC50 (Plasmodium falciparum [2]): 17 nM
9 | CC(C)[C@H]1CC[C@](C)(C#N)[C@H]2CC[C@@](C)(O)[C@H](C#N)[C@H]12 | 12 | 16 | 
10 | CC1=C[C@@]2(O)[C@@H](CC1)[C@@](C)(C#N)CC[C@@H]2[C@@]1(C)CC[C@@H](C(C)(C)C#N)O1 |  |  | IC50 (Plasmodium falciparum [3]): 80 nM
11 | C[C@@H]1C[C@@H]2C[C@H](C)[C@H]3CC[C@](C)(C#N)[C@H]4CC[C@@H]([C@@H]2[C@H]34)[C@]1(C)C#N |  | 1.6 | IC50 (Plasmodium falciparum [4]): 13 nM
12 | CC1=C[C@@H]2[C@@H](C(C)C)CC[C@@](C)(C#N)[C@@H]2CC1 (racemic) | 180 | 45 | 
13 | CC1=C[C@@H]2[C@@H](C(C)C)CC[C@](C)(C#N)[C@H]2CC1 (racemic) | 705 | 247 | 
14 | CC(C)[C@H]1CC[C@](C)(C#N)[C@H]2CC[C@@](C)(C#N)[C@H](O)[C@H]12 (racemic) |  |  | IC50 (Plasmodium falciparum [1]): 27 nM; IC50 (Plasmodium falciparum [2]): 46 nM
15 | C[C@]1(C#N)CC[C@H](CCO)[C@H]2[C@@H](C#N)[C@](C)(O)CC[C@@H]21 (racemic) | 302 | 205 | 
